Molecules are shown by their SMILES.

Common to all, as to assay: Kirby-Bauer agar disk diffusion
Common to all, as to settings: Table 3, 6-mm disks, 20 μg test compound, 24 hours
In general terms: In agar diffusion tests the substance spreads into inoculated agar from a disc or well.

Assay [1] deals with S. saprophyticus (ATCC 3552). Format: cell-based, Staphylococcus saprophyticus. As for the experimental part:
(§1) In this study, a selection of N-methylthio-substituted β-lactams are examined for antimicrobial activity by the Kirby-Bauer disk diffusion method on agar plates. A variety of common Gram-positive and Gram-negative bacteria are tested, including clinical isolates of methicillin-resistant Staphylococcus aureus (MRSA).
(§2) Compound susceptibility measurements are obtained from agar disk diffusion experiments using 6-mm air-dried disks impregnated with 20 μg of the test compound. The values correspond to the average diameters in mm (triplicate experiments) for the zone of growth inhibition observed after 24 h. Staphylococcus aureus (ATCC 25923) and β-lactamase-producing strains of methicillin-resistant Staphylococcus aureus (labeled as MRSA USF652-659) are obtained from Lakeland Regional Medical Center, Lakeland, Fla. Staphylococcus epidermidis, Staphylococcus simulans, Staphylococcus simulans, and Microcossus luteus are clinical isolates from University of South Florida Medical Clinic. Nieserria gonnorhoeae (β-lactamase positive) is obtained from the Tampa Branch State Laboratory. PenG is penicillin G (potassium salt). Table 1 provides the zones of growth inhibition that are observed after 24 hours using the lactams of FIGS. 1A-1I (designated A-I, respectively).
(§3) Of particular interest is the ability of these compounds to retain their effectiveness against penicillin-resistant strains of Staphylococcus aureus, a dangerous hospital-borne pathogen which is becoming difficult to treat with conventional antibiotic therapy. The lactams were screened for antibacterial activity by disk diffusion on agar plates, and the resulting zones of bacterial growth inhibition measured (see Table 3; each lactam is designated by Figure number).
(§4) Table 3: Growth inhibition zones obtained from agar disk diffusion experiments using 6-mm air-dried disks impregnated with 20 μg of the test compound. The values correspond to the average diameters in mm for the zone of growth inhibition observed after 24 hours. Staphylococcus aureus and β-lactamase-producing strains of methicillin-resistant Staphylococcus aureus (labeled MRSA USF652-659) are obtained from a clinical testing laboratory at Lakeland Regional Medical Center, Lakeland, Fla.

Assay [2] relates to Staphylococcus epidermidis. It is filed as cell-based. As for the experimental part: as §1, §2, §3, §4
Another assay has as its system Micrococcus luteus. Format: cell-based. As to the method:
as §1, §2, §3, §4

Assay [3] has as its system Staphylococcus aureus (ATCC 25923). It is filed as cell-based. As to the method: as §1, §2, §3, §4
For the next assay, the system named is S. simulans (ATCC 11631). It is filed as cell-based, Staphylococcus simulans. As to the method:
as §1, §2, §3, §4

Another assay concerns MRSA USF657. It is filed as cell-based, Staphylococcus aureus. As for the experimental part: as §1, §2, §3, §4
(§5) Those compounds were tested for bioactivity using the Kirby-Bauer test on agar plates.
(§6) Biological activity is enhanced against β-lactamase producing strains of methicillin-resistant Staphylococcus aureus (MRSA). With the lactam shown in FIG. 11A serving as a lead structure, a series of other C-4 substituted derivatives (FIGS. 11B-11I) were investigated herein. Table 5 lists microbiological data for β-lactams from Kirby-Bauer Disc Diffusion Test Results (with each lactam identified by Figure number).
(§7) Scheme I summarizes the synthesis of ester compounds 4. 4-Carboxy benzaldehyde (1) is coupled with the appropriate alcohol using DCC/DMAP, followed by reaction with p-anisidine, to give imines 2. Staudinger coupling of methoxyacetyl chloride with imine 2 gives N-aryl protected β-lactam 3. N-Dearylation of β-lactam 3 with ceric ammonium nitrate and methylthiolation with N-(methylthio)phthalimide affords N-methylthio β-lactams 4. These compounds are tested for antibacterial activity by the Kirby-Bauer method of disc diffusion on agar plates. [drawing 7]

A further assay has as its system MRSA USF653. Format: cell-based, Staphylococcus aureus. As to the method: as §1, §2, §3, §4, §5, §6, §7
The next assay relates to MRSA USF652. It is filed as cell-based, Staphylococcus aureus. As for the experimental part:
as §1, §2, §3, §4, §5, §6, §7

For a further assay, the system named is MRSA USF654. Format: cell-based, Staphylococcus aureus. As to the method: as §1, §2, §3, §4, §5, §6, §7
The subject of another assay is MRSA USF658. It is filed as cell-based, Staphylococcus aureus. As to the method:
as §1, §2, §3, §4, §5, §6, §7

The test system of the next assay is MRSA USF659. It is filed as cell-based, Staphylococcus aureus. As to the method:
as §1, §2, §3, §4, §5, §6, §7

The test system of the next assay is MRSA USF656. It is filed as cell-based, Staphylococcus aureus. As to the method:
as §1, §2, §3, §4, §5, §6, §7

For the next assay, the system named is MRSA USF655. It is filed as cell-based, Staphylococcus aureus. As for the experimental part: as §1, §2, §3, §4, §5, §6, §7

Take `CSN1C(=O)C(OC(C)=O)C1C=Cc1ccccc1` (racemic) [FIG. 3C]: the “zone of growth inhibition, average diameter” value (from here on “zone of growth inhibition”) in assay [1] turned out to be 12 mm; in [2] it was 19 mm; with Micrococcus luteus it was 17 mm; in assay [3] it was 15 mm; in the assay with S. simulans (ATCC 11631), 10 mm; with MRSA USF657, 16 mm. Besides, the “zone of growth inhibition” value came to 18 mm with MRSA USF653; 18 mm in the assay on MRSA USF652; 16 mm in the assay with MRSA USF654; 16 mm with MRSA USF658; 15 mm with MRSA USF659; 17 mm with MRSA USF656. The “zone of growth inhibition” value with MRSA USF655 stood at 18 mm.
In the case of `CSN1C(=O)C(Oc2ccccc2)C1C=Cc1ccccc1` (racemic) [FIG. 3D], the “zone of growth inhibition” value in [1] came out at 11 mm; in [2], 10 mm; with Micrococcus luteus, 10 mm; in assay [3] it was 15 mm; with S. simulans (ATCC 11631), 8 mm; in the assay with MRSA USF657 it was 13 mm. The “zone of growth inhibition” value with MRSA USF653 amounted to 16 mm; in the assay with MRSA USF652 it was 14 mm; in the assay with MRSA USF654, 14 mm; in the assay on MRSA USF658 it was 12 mm; in the assay with MRSA USF659, 12 mm; with MRSA USF656, 13 mm. Besides, in the assay on MRSA USF655, the “zone of growth inhibition” value turned out to be 15 mm.
Regarding `COC1C(=O)N(SC)C1C=Cc1ccccc1` (racemic) [FIG. 3A], the “zone of growth inhibition” value is on record as 14 mm in assay [1] (listed as 3A); 12 mm in [2] (listed as 3A); 11 mm in the assay with Micrococcus luteus (listed as 3A); 10 mm in assay [3] (listed as 3A); 9 mm in the assay on S. simulans (ATCC 11631) (listed as 3A); 11 mm with MRSA USF657 (listed as 3A). Moreover, the “zone of growth inhibition” value turned out to be 18 mm in the assay on MRSA USF653 (listed as 3A); 10 mm in the assay with MRSA USF652 (listed as 3A); 12 mm in the assay on MRSA USF654 (listed as 3A); 10 mm in the assay with MRSA USF658 (listed as 3A); 10 mm with MRSA USF659 (listed as 3A); 13 mm in the assay with MRSA USF656 (listed as 3A). Moreover, the “zone of growth inhibition” value in the assay with MRSA USF655 (listed as 3A) is reported as 12 mm.
On to `COC1C(=O)N(SC)C1CCc1ccccc1` (racemic) [FIG. 3E], for which the “zone of growth inhibition” value in assay [1] is 9 mm; in [2], 12 mm; in the assay with Micrococcus luteus, 20 mm; in assay [3] it was 16 mm; with S. simulans (ATCC 11631) it was 9 mm; in the assay on MRSA USF657 it was 14 mm. The “zone of growth inhibition” value with MRSA USF653 is recorded as 20 mm; in the assay with MRSA USF652, 18 mm; with MRSA USF654, 17 mm; in the assay on MRSA USF658, 15 mm; with MRSA USF659, 15 mm; in the assay with MRSA USF656, 17 mm. Besides, the “zone of growth inhibition” value in the assay with MRSA USF655 is 15 mm.

(Values after US6946458B2, “N-thiolated beta-lactams: novel antibacterial agents for methicillin-resistant Staphylococcus aureus” (University of South Florida, priority 1999, dated 2005).)
